This passage reports bioavailability results from ChEMBL document CHEMBL3832031, “DailyMed|setid=d3c528d2-429d-4f37-9ebf-eee8b9fd3050 | TRENTINOIN - tretinoin gel| Oceanside Pharmaceuticals”.

The bioavailability is the share of a dose that reaches the circulation, judged against a reference dose that is usually intravenous. A higher bioavailability goes with good availability.

Series [1] is described as follows: Bioavailability of Tretinoin following multiple topical administration of 0.1 % tretinoin gel to 44 male and female subjects. It counts as ADME, organism-based. The following applies: both, human, in vivo, topical or ocular, dosed compound id 14, dosed compound name TRETINOIN, gender male and female, regimen Multiple dose, study dosing duration 28 days, tissue Plasma.

Series [2] in a line: Bioavailability of Tretinoin following single topical administration of 0.1 % tretinoin gel to 44 male and female subjects. It counts as ADME, organism-based. The note with it: both, human, in vivo, topical or ocular, dosed compound id 14, dosed compound name TRETINOIN, gender male and female, regimen Single dose, study dosing duration 28 days, tissue Plasma.

Consider `CC1=C(/C=C/C(C)=C/C=C/C(C)=C/C(=O)O)C(C)(C)CCC1` [TRETINOIN], for which the bioavailability came to 1.41% in series [1] and 0.82% in series [2].
